In ChEMBL document CHEMBL5143734, “Seco-Lupane Triterpene Derivatives Induce Ferroptosis through GPX4/ACSL4 Axis and Target Cyclin D1 to Block the Cell Cycle” (J Med Chem, 2022):
Active and inactive are the calls of the source. The rule behind the calls is not given here.

Legend:
HepG2 [1] = assay: Cytotoxicity against human HepG2 cells assessed as reduction in cell viability incubated for 48 hrs by CCK-8 assay; format: functional, cell-based; details: dose 0.78125-50 µM, DDE = dose-dependent effect
MCF7 = assay: Cytotoxicity against human MCF7 cells assessed as reduction in cell viability by CCK-8 assay; format: functional, cell-based
HepG2 [2] = assay: Antiinvasive activity in human HepG2 cells assessed as inhibition of cell invasion measured after 24 hrs by crystal violet staining based transwell assay; format: functional; details: dose 0.125-0.5 µM, DDE = dose-dependent effect
HepG2 [3] = assay: Induction of ferroptosis in human HepG2 cells assessed as increase in ACSL4 mRNA expression measured after 6 to 36 hrs by qRT-PCR analysis; format: functional, cell-based; details: dose 0.25-1 µM, time 6-36 hrs, DDE = dose-dependent effect
HepG2 [4] = assay: Induction of ferroptosis in human HepG2 cells assessed as increase in ACSL4 protein expression at 2 uM by Western blot analysis; format: functional, cell-based; details: time 6-36 hrs, TDE = time-dependent effect
HepG2 [5] = assay: Induction of ferroptosis in human HepG2 cells assessed as increased in MDA level incubated for 36 hrs; format: functional, cell-based; details: dose 0.5-2 µM, DDE = dose-dependent effect
HepG2 [6] = assay: Downregulation of Cyclin B1 mRNA expression in human HepG2 cells at 0.5 to 2.0 uM by RT-qPCR analysis; format: functional, cell-based; details: dose 0.5-2 µM, time 6-36 hrs, TDE = time-dependent effect
HepG2 [7] = assay: Downregulation of Cyclin D1 mRNA expression in human HepG2 cells at 0.5 to 2.0 uM by RT-qPCR analysis; format: functional, cell-based; details: dose 0.5-2 µM, time 6-36 hrs, TDE = time-dependent effect
HepG2 [8] = assay: Inhibition of Cyclin D1 in human HepG2 cells assessed as reduction in E2F expression by Western blot analysis; format: cell-based; details: dose 0.5-2 µM, DDE = dose-dependent effect
HepG2 [9] = assay: Cytotoxicity against human HepG2 cells assessed as reduction in cell viability at 1.5625 uM incubated for 48 hrs by CCK-8 assay relative to control; format: functional
HepG2 [10] = assay: Antiproliferative activity against human HepG2 cells incubated for 24 to 48 hrs by Edu staining based fluorescence microscopy assay; format: functional, cell-based; details: dose 0.125-2 µM, time 24-48 hrs, DDE = dose-dependent effect
HepG2 [11] = assay: Induction of cell cycle arrest in human HepG2 cells assessed as increase in G1 phase at 0.5 to 2 uM; format: functional, cell-based; details: dose 0.5-2 µM

SMILES: C=C(C)[C@@H]1CC[C@]2(C(=O)OCCCCCn3cc(CCN)c4ccccc43)CC[C@]3(C)[C@H](C[C@H]4OC(=O)C[C@@H](O)[C@]5(C)[C@@H]4[C@@]3(C)CC[C@H]5C(=C)C)[C@@H]12
- Activity (HepG2 [1]): Dde
- IC50 (MCF7): 5.34 µM
- Activity (HepG2 [2]): Dde
- Activity (HepG2 [3]): Dde
- Activity (HepG2 [4]): Tde
- Activity (HepG2 [5]): Dde
- Activity (HepG2 [6]): Tde
- Activity (HepG2 [7]): Tde
- inhibition (HepG2 [8]): Dde
- inhibition at 1.562 µM (HepG2 [9]): 95.1%
- Activity (HepG2 [10]): Dde
- Activity (HepG2 [11]): Active
